# Assay results taken from paper PMC8781304, “Arene-Ruthenium(II) Complexes with Carbothiamidopyrazoles as a Potential Alternative for Antibiotic Resistance in Human” (Molecules, 2022).
# Several values for one entry are separate records, joined by “and”; a condition that tells them apart may be missing. Equal values may be shown once.
# Assays:
# S. aureus ATCC 29213 [1] = experiment: Synergy with oxacillin and vancomycin, partial checkerboard broth microdilution; format: cell-based, Staphylococcus aureus; settings: S. aureus ATCC 29213; for FIC (Oxa) / FIC (Van): MIC antibiotic in combination/MIC antibiotic alone; for MIC Oxa in Combination: oxacillin with the complex at ½ MIC (NH4PF6 250 µg/mL); for MIC Van in Combination: vancomycin with the complex at ½ MIC (NH4PF6 250 µg/mL)
# [2] = system: S. epidermidis ATCC 12228; experiment: as above; format: cell-based, Staphylococcus epidermidis; settings: S. epidermidis ATCC 12228; for FIC (Oxa) / FIC (Van): MIC antibiotic in combination/MIC antibiotic alone; for MIC Oxa in Combination: oxacillin with the complex at ½ MIC (NH4PF6 250 µg/mL); for MIC Van in Combination: vancomycin with the complex at ½ MIC (NH4PF6 250 µg/mL)
# S. aureus ATCC 29213 [3] = experiment: Time-kill test; format: cell-based, Staphylococcus aureus; settings: 1 × MIC
# Experimental: (§1) The time-kill experiments were performed as described previously. Briefly, inocula were prepared in TSB medium (TSB; […] BTL Sp. z o.o., Łódź, Poland). All samples were incubated at 35 °C and 80 rpm for varied time intervals (2, 4, 6, 12, 18, 24, 48h). The percentage of dead cells was calculated according to the growth control by determining the number of living cells (CFU/mL) of each tube using the agar plate count method. Samples were immediately serially diluted ten-fold in 0.01 M phosphate buffered saline (PBS, Bimed Lublin S.A., Lublin, Poland) at pH 7.0 and 10 μL aliquots were spot-inoculated in duplicate onto MHA plates. Agar plates were incubated at 37 °C overnight before determining the viable count. Two independent experiments were carried out.
# [4] = system: S. epidermidis ATCC 12228; experiment: Time-kill test; format: cell-based, Staphylococcus epidermidis; settings: 1 × MIC
# Experimental: as §1
# [5] = system: S. epidermidis ATCC 12228; experiment: Cell lysis (bacteriolysis, OD600); format: cell-based, Staphylococcus epidermidis; settings: 1 × MBC
# [6] = system: Staphylococcus aureus ATCC 29213; experiment: Fluorescence microscopy, Hoechst 33258 / propidium iodide viability; format: cell-based; settings: S. aureus ATCC 29213; MIC concentration, 24 h
# Experimental: (§2) Staphylococcus aureus ATCC 29213 and Staphylococcus epidermidis ATCC 12228 strains were treated with tested compounds 2a–2d and 3a–3d at a concentration 1 × MIC for 24h, while untreated cells were used as a growth control. After incubation, the cells were harvested and a suspension of 1 × 10^5 cells/mL in PBS was prepared. Following this, 1 µl of the fluorescent dyes Hoechst 33258 and propidium iodide (15 µg/mL each) (Sigma, St. Louis, MO, USA) were added. The obtained mixture was incubated in the dark at room temperature for 15–20 min. After incubation, the cell suspensions, placed on glass slides, were analyzed under an Olympus IX 70 fluorescence microscope (Shinjuku, Tokyo, Japan), using a 360–370 nm UV filter. Photos were taken at 10 × 20 magnification.
# [7] = system: Staphylococcus epidermidis ATCC 12228; experiment: as above; format: cell-based; settings: S. epidermidis ATCC 12228; MIC concentration, 24 h
# Experimental: as §2
# [8] = system: Supercoiled plasmid pUC57 DNA; experiment: Cleavage of pUC57 DNA, agarose gel electrophoresis; format: biochemical; settings: pUC57, 100, 200 and 300 µM
# Experimental: DNA supercoiling plays a key role in gene expression and genome organization. The agarose gel electrophoresis assay was used to check whether the tested complexes 3a–3c are able to cleave DNA. Supercoiled plasmid pUC57 DNA (4634 bp); Thermo Scientific, ABO Sp. z o.o., Gdansk, Poland), was incubated with tested compounds (100, 200 and 300 µM). Next, loading buffer (1 μL) containing […] bromophenol blue, 0.25% xylene cyanol and 30% glycerol was added to allow the samples to be loaded into 1% w/v agarose gel. Electrophoresis was performed at 75 V in Tris-acetate- EDTA (TAE) buffer. The gel was stained using Midori green advance DNA stain (Genetics, ABO Sp. z o.o., Gdansk, Poland), and visualised under UV light with the BioRad Gel Doc 2000 system using LABWORK software (Hercules, California, USA). All experiments were carried out in triplicate under the same conditions.
# [9] = system: human foreskin fibroblast HFF-1 (ATCC-SCRC-1041); experiment: Cytotoxicity, MTT reduction assay; format: cell-based; settings: HFF-1, MTT; for IC50: 24 h, tested 3.9–500 μM
# Experimental: The cytotoxicity of arene-ruthenium(II) complexes 3a–3d was determined using the MTT (3-(4,5-dimethylthiazol-2-yl)-2,5-diphenyltetrazolium bromide; Sigma, St. Louis, MO, USA) reduction assay and a human foreskin fibroblast HFF-1 culture (ATCC-SCRC-1041) (LGC Standards Sp. z o.o., Poland) at a final concentration range of 3.9–500 µM. The HFF-1 cells were cultured in Dulbecco’s Modified Eagle’s Medium (DMEM; Sigma, St. Louis, MO, USA) with 15% fetal bovine serum (FBS; BioWest, Nuaillé, France) and penicillin/streptomycin (100 × stock solution; BioWest, Nuaillé, France), 1 × 10^6 cell/mL (100 µL/well) in 96-well tissue culture plates (Nunc, Roskilde, Denmark) for 24 h at 37 °C/5% CO2. The cells were then exposed to arene-ruthenium(II) complexes for 24 h at 37 °C. The control (untreated) cells were exposed to culture medium alone or culture medium containing 2% DMSO to exclude the effect of the solvent used to prepare the stock solutions of the tested complexes. Next, fresh culture medium (100 µL/well) and MTT (1.5 mg/mL, 50 µL/well) were added, and cells were incubated for two hours under the above conditions. MTT was […] blue formazan crystals produced by the metabolically active cells. Finally, the MTT solution was removed and replaced with 100 µL/well of 20% sodium dodecyl sulfate (SDS; Sigma, St. Louis, MO, USA) for 24 h (room temperature) to dissolve the blue formazan. Based on the absorbance (λ = 550 nm) of tested and control cells (100% viability), the percentage of cell viability after exposure was calculated. For each sample, the experiment was performed twice.
Compound,FIC (Oxa) (S. aureus ATCC 29213 [1]),FIC (Van) (S. aureus ATCC 29213 [1]),MIC Oxa in Combination (S. aureus ATCC 29213 [1]) [µg/mL],MIC Van in Combination (S. aureus ATCC 29213 [1]) [µg/mL],FIC (Oxa) [2],FIC (Van) [2],MIC Oxa in Combination [2] [µg/mL],MIC Van in Combination [2] [µg/mL],Time-kill: bacteriostatic or bactericidal (S. aureus ATCC 29213 [3]),Time-kill: bacteriostatic or bactericidal [4],"Cell lysis, change of OD600 [5]",Change in bacterial viability (Hoechst 33258 / PI fluorescence) [6],Change in bacterial viability (Hoechst 33258 / PI fluorescence) [7],"Cleavage of plasmid DNA, in words [8]",Concentration above which cytotoxicity was seen [9],IC50 [9],"Correlation with Oxa and Van (synergy), in words (S. aureus ATCC 29213 [1])","Correlation with Oxa and Van (synergy), in words [2]"
Cc1cc(C)[n+]2n1C(N)=[S+][Ru-]2[Cl].Cc1ccc(C(C)C)cc1.F[P-](F)(F)(F)(F)F [Compound 3a],1,1,0.250,0.50,0.06,0.03,0.015,0.015,bacteriostatic,bacteriostatic,not found to change OD600 values,Less changes in cell survival,Less changes in cell survival,did not affect DNA structure,above 250 μM,380 µM and > 350 µM,,
CCc1cc(CC)[n+]2n1C(N)=[S+][Ru-]2[Cl].Cc1ccc(C(C)C)cc1.F[P-](F)(F)(F)(F)F [Compound 3b],0.5,0.25,0.125,0.125,0.06,0.03,0.015,0.015,bacteriostatic,bacteriostatic,not found to change OD600 values,Less changes in cell survival,Less changes in cell survival,able to cut plasmid DNA,above 250 μM,355 µM and > 350 µM,synergistic effects,synergistic effect in all tested configurations
[(η^6-p-cymene)Ru(1-[amino(thioxo)methyl]-5-hydroxy-3-phenyl-1H-pyrazole)PF6 [Compound 3c],1,1,0.250,0.50,0.06,0.03,0.015,0.015,bacteriostatic,bactericidal,quite moderate decrease in OD600,greatest changes in bacterial viability,greatest changes in bacterial viability,able to cut plasmid DNA,,264 µM,,
